Laboratory results: US4689326A, “Process for controlling hyperlipidemia” (Research Corporation, priority 1985, dated 1987)

Columns and labels:
Assay type in all cases: in vivo, CF1 male mice
[1] = system: serum cholesterol; experiment: Hypolipidemic Activity of Compounds 1 and 10-33, Example 13: serum cholesterol; conditions: Mus musculus, 20 mg/kg/day ip
Experimental: (§1) Compounds 1 and 10-33, identified below in Table 11, were suspended by homogenation in a 1% aqueous solution of carboxymethylcellulose (CMC) such that a 0.2 ml dosage supplied a concentration of 20 mg/kg of the active compounds. The suspending agent, the 1% aqueous solution of CMC, was utilized as a control, applied in the same quantity, 0.2 ml. CF1 male mice, maintained in groups of six, were fed Wayne Blox [trademark] laboratory animal show ad libitum with water. The mice, which each weighed approximately 25 g, were administered the drugs interperitoneally at approximately the same time. On days 9 and 16 approximately […] of blood was taken from each of the animals by tail bleeding. After centrifugation to obtain serum, 25 microliter samples were assayed for total cholesterol utilizing the method of Ness et al. Serum triglyicerides were assayed, using a commercially available BioDynamics/bmc triglyiceride kit, on blood collected on the 16th day. By comparison to standards the milligram percent of cholesterol and milligram per deciliter concentration of triglicerides were calculated. Treated values were expressed as a percent of the level of the control animals plus or minus the standard deviation. The "T" values were obtained using the Student's "t" test.

[2] = system: serum cholesterol; experiment: Testing of Normal Mice: serum cholesterol (modified Liebermann-Burchard), Example 7; conditions: Mus musculus, 20 mg/kg/day ip
Experimental: (§2) Suspensions of Compounds Nos. 1-9 were prepared wherein the compounds were suspended in an aqueous 1% carboxymethylcelluose solution, homogenized and administered to CF1 male mice, each weighing approximately 25 grams, intraperitoneally on a daily basis for 16 days. The dosage was, with the exception of one compound, 20 milligrams of the active compound per kilogram of mouse weight per day. On days 9 and 16 blood was obtained by tail vein bleeding. The blood serum was separated by centrifugation for three minutes. Serum cholesterol levels were determined by a modification of the Liebermann-Burchard reaction. Serum was also collected on day 16 and the triglycerides content was determined by a commercial kit, BioDynamics/bnc Single Vile Colorimetric Method 348201. Each compound was tested on a group of six mice.
(§3) In addition to the above-described treated mice, untreated control groups of six mice were similarly tested on days 9 and 14 or 16 to determine their serum cholesterol and triglycerides blood levels. Table 5 reports the percent control, based on the serum cholesterol and serum triglyceride levels of the treated mice compared to the untreated controls. Table 5 also includes the standard deviation indicating the level of confidence of these numbers.
(§4) Example 7 was repeated substituting clofibrate, a compound used in the prior art to lower serum cholesterol and serum triglyceride levels. The clofibrate was administered as a suspension in an aqueous 1% solution of carboxymethylcellulose. However, unlike the compounds of the present invention which were administered at a dosage of 20 mg/kg day, ip, this compound was administered at the elevated concentration of 150 mg/kg day, ip.

[3] = system: serum triglycerides; experiment: Hypolipidemic Activity of Compounds 1 and 10-33, Example 13: serum triglycerides; conditions: Mus musculus, 384 h; 20 mg/kg/day ip, day 16, ± SD; read-out: Serum Triglyceride as a function of control, 16 Day
Experimental: as §1

[4] = system: serum triglycerides; experiment: Testing of Normal Mice: serum triglycerides (BioDynamics kit), Example 7; conditions: Mus musculus, 384 h; 20 mg/kg/day ip, day 16, ± SD
Experimental: as §2, §3, §4

Compound: O=c1[nH]c(=O)c2ccccc2c2ccccc12 [Compound 1, Diphenimide]
- response vs control in vivo at 20 mg/kg ([1]; 216 h, day 9, ± SD, read-out: Serum Cholesterol as a function of control, 9 Day): 81 ± 7%
- response vs control in vivo at 20 mg/kg ([1]; 384 h, day 16, ± SD, read-out: Serum Cholesterol as a function of control, 16 Day): 82 ± 4%
- response vs control in vivo at 20 mg/kg ([2]; 216 h, day 9, ± SD, read-out: Serum Cholesterol Control, % Day 9): 81 ± 7%
- response vs control in vivo at 20 mg/kg ([2]; 384 h, day 16, ± SD, read-out: Serum Cholesterol Control, % Day 16): 82 ± 4%
- response vs control in vivo at 20 mg/kg [3]: 81 ± 7%
- response vs control in vivo at 20 mg/kg [4]: 81 ± 7%
